For seven molecules, % of control, % binding and % of inhibition results are on record in ChEMBL document CHEMBL5465560, “Selectivity Literature for EUbOPEN Chemogenomic Library” (2024).

Assay [1] has as its target Mitogen-activated protein kinase 1 (Homo sapiens, UniProt P28482). As to the kind of experiment: Selectivity interaction (Ambit KINOMEscan and KiNATiv profiling in Jurkat cells) EUB0000090b MAPK1. The format is cell-based. The following applies: at 1 µM.
Assay [2] deals with T1, Myosin light chain kinase (Homo sapiens) (UniProt Q32MK0).
T1 sequence (whole entry): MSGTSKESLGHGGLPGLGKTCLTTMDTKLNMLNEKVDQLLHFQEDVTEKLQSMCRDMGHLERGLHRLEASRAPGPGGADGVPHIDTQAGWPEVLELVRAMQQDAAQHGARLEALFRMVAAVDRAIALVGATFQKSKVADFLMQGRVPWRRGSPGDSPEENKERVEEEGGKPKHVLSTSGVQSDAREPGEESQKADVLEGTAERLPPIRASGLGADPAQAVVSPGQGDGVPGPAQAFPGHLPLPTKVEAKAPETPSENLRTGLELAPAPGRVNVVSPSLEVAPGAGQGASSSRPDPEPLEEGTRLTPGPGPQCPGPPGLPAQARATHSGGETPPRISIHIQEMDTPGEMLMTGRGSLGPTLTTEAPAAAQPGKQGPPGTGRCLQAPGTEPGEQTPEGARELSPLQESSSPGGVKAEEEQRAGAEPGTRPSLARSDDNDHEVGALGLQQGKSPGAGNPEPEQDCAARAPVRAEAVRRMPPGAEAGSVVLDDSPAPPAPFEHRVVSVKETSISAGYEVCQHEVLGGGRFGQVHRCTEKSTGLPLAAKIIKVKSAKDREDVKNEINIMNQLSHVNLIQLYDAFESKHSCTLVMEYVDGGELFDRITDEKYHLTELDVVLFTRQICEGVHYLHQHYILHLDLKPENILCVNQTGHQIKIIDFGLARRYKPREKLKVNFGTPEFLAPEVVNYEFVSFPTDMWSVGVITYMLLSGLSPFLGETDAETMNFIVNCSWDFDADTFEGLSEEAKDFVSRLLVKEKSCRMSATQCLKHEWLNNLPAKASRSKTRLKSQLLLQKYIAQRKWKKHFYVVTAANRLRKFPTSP
As to the kind of experiment: Selectivity interaction (KinomeScan (DiscoverX)) EUB0000229b MYLK3. The following applies: at 10 µM.

The target of assay [3] is T2, Muscle, skeletal receptor tyrosine-protein kinase (Homo sapiens) (UniProt O15146).
T2 sequence (whole entry): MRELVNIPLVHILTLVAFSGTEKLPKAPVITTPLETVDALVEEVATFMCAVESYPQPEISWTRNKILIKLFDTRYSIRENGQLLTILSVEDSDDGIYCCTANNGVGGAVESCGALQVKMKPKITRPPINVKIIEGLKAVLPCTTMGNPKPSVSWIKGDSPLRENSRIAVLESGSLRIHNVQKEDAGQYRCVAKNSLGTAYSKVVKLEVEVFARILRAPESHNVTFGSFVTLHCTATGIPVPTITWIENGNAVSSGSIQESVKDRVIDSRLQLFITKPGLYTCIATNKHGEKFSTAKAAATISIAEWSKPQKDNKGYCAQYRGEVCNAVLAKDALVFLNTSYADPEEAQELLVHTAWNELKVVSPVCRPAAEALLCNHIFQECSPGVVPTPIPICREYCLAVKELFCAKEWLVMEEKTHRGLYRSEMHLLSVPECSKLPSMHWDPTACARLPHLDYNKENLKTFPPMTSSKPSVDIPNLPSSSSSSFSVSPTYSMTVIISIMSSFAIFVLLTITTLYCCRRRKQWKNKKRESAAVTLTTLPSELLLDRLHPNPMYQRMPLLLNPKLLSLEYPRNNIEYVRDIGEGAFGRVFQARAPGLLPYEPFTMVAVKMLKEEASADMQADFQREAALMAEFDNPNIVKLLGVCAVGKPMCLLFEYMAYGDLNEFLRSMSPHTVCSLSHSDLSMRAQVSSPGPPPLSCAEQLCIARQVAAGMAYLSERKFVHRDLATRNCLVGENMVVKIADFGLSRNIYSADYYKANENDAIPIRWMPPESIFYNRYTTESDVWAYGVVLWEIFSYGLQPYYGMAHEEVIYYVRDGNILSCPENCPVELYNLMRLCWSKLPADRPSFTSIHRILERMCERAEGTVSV
Description: Selectivity interaction (KinomeScan (DiscoverX)) EUB0000229b MUSK. As to conditions: at 10 µM.

Assay [4] has as its target Dual specificity protein kinase CLK4 (Homo sapiens, UniProt Q9HAZ1). Description: Selectivity interaction (KinomeScan (DiscoverX)) EUB0000655a CLK4. As to conditions: at 10 µM.
Assay [5] concerns the target T3, Phosphatidylinositol 5-phosphate 4-kinase type-2 beta (Homo sapiens) (UniProt P78356).
T3 sequence (whole entry): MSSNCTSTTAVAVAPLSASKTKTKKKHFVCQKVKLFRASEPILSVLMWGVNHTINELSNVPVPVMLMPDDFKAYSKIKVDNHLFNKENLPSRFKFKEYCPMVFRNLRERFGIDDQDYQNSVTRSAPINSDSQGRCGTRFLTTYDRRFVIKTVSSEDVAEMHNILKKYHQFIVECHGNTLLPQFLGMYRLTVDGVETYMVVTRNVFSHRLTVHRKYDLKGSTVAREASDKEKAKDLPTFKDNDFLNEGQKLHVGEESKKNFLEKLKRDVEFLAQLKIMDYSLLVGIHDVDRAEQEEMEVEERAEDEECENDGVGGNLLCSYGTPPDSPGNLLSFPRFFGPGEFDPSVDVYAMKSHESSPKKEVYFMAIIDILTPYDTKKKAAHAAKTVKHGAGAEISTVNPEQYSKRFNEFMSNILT
Description: Selectivity interaction (ActivX KiNativ screen (ex vivo kinase selectivity in human PBMCs)) EUB0001619a PIP4K2B. As to conditions: PBMC, at 1 µM. In kind it is cell-based.

Assay [6] concerns the target Mitogen-activated protein kinase kinase kinase 14 (Homo sapiens) (UniProt Q99558). As to the kind of experiment: Selectivity interaction (KinomeScan (DiscoverX)) EUB0000695a MAP3K14. The following applies: at 100 nM.
The target of assay [7] is Dual specificity mitogen-activated protein kinase kinase 1 (Homo sapiens, UniProt Q02750). Description: Selectivity interaction (ProQinase) EUB0000171b MAP2K1.
Dual specificity mitogen-activated protein kinase kinase 1, sequence (Q02750 whole entry): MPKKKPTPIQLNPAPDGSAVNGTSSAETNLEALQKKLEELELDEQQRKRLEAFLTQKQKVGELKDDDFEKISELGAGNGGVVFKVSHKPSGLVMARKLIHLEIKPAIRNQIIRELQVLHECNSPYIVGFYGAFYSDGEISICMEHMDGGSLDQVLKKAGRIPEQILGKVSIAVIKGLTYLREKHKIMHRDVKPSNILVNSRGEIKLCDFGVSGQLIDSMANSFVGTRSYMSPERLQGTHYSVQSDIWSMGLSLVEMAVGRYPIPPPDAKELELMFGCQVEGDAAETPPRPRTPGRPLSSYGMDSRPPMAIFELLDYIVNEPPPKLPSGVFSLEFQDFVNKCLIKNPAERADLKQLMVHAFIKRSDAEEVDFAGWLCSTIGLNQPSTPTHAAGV
For assay [8], the target named is Tyrosine-protein kinase Fer (Homo sapiens) (UniProt P16591). Description: Selectivity interaction (Upstate Kinase Profiler service (Millipore)) EUB0000056c FER. As to conditions: at 1 µM.
Tyrosine-protein kinase Fer (Homo sapiens), sequence (P16591 whole entry, looked up): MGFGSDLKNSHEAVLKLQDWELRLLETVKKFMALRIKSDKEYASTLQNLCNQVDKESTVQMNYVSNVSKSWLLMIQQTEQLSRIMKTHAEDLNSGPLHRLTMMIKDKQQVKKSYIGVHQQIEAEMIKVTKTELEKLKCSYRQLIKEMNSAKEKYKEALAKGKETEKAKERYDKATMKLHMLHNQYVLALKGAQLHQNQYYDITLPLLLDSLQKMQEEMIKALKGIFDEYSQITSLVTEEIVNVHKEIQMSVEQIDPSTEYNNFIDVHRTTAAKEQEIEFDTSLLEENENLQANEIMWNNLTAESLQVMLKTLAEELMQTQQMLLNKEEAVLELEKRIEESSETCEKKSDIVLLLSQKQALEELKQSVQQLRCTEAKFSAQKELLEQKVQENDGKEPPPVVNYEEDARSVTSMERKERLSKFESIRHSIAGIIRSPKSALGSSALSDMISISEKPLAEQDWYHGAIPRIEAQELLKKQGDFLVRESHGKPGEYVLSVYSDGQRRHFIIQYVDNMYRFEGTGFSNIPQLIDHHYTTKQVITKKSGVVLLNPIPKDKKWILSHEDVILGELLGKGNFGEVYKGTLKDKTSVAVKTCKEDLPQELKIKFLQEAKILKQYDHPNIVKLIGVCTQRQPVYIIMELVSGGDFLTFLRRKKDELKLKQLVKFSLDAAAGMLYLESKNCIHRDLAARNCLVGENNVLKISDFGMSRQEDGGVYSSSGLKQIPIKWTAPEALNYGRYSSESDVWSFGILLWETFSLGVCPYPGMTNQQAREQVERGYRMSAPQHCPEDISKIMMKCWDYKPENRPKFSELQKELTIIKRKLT

Molecules are shown by their SMILES.

Dual specificity protein kinase CLK4, sequence (Q9HAZ1 whole entry, looked up): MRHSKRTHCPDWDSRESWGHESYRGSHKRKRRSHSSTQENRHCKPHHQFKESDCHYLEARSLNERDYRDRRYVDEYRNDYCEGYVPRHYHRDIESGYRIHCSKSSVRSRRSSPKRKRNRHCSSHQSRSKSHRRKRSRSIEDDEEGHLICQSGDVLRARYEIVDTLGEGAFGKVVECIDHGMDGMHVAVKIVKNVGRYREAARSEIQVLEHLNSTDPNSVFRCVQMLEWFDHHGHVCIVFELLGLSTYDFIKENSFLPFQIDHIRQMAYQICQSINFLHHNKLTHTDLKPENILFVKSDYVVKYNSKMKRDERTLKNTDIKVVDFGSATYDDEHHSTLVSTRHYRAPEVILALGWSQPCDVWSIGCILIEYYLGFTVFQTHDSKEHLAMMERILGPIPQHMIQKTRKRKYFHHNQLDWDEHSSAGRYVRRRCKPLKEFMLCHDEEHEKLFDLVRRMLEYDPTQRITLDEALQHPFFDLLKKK
Mitogen-activated protein kinase kinase kinase 14 (Homo sapiens), sequence (Q99558 whole entry, looked up): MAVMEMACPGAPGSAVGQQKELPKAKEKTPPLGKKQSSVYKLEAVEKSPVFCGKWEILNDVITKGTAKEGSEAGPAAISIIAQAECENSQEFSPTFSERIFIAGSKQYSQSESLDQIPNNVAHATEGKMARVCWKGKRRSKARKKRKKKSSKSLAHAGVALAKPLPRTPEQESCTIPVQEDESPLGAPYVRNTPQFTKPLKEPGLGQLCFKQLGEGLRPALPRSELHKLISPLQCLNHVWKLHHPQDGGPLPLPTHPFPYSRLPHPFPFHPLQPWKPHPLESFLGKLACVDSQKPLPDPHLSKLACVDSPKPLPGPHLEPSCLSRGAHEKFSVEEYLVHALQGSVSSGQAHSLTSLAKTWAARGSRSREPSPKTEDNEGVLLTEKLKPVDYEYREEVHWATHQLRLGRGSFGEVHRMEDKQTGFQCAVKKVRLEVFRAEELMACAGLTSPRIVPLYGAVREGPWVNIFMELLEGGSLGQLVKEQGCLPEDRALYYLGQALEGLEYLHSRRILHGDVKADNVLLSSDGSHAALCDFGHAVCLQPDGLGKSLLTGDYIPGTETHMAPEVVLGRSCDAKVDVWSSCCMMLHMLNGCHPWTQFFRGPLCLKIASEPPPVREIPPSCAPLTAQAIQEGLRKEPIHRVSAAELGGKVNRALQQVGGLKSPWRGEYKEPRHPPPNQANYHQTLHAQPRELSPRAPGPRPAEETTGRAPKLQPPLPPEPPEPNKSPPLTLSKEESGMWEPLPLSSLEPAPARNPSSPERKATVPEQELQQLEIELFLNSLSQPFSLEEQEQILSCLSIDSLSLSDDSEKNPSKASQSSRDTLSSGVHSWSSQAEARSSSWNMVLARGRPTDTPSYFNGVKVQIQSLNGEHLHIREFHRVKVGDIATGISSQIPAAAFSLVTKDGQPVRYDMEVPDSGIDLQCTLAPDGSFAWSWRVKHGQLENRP
Mitogen-activated protein kinase 1, sequence (P28482 whole entry): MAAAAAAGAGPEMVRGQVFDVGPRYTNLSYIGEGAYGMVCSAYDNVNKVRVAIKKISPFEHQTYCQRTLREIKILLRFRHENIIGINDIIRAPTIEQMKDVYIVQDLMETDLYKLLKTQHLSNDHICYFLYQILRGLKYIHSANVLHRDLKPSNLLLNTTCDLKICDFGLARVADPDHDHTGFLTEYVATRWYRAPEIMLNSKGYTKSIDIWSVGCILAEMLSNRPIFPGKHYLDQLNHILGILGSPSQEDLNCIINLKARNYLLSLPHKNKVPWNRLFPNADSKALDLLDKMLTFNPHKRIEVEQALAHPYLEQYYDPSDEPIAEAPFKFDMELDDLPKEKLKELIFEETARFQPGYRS

On to `CN(C)C/C=C/C(=O)Nc1ccc(C(=O)N2CCCC(Nc3ncc(Cl)c(-c4c[nH]c5ccccc45)n3)C2)cc1` (centres undefined), for which the % of control in assay [1] was 85%.

Regarding `COc1cc(N(C)c2ccnc3ccc(C(F)(F)F)cc23)cc(OC)c1OC`, the % binding is 100% in assay [2] and 81% in assay [3].

Molecule `CN(C)CCOc1ccc(-c2nc(-c3ccncc3)c(-c3ccc4c(c3)CC/C4=N\O)[nH]2)cc1` returned a % of control in assay [4] of 68%.

As for `N#Cc1cccc(-c2c[nH]c3ncnc(N4CCOCC4)c23)c1`, in assay [5], the % of inhibition amounted to 15%.

For the molecule `Cc1cc(F)c(C(=O)Nc2cccc(-c3nncn3C(C)C)n2)cc1-n1cnc(C2CC2)c1`, the % of control in assay [6] is 36%.

Consider `C=CC(=O)Nc1cccc(C(=O)Nc2ccc(Nc3cc(-c4[nH]c(SC)nc4C)ccn3)cc2)c1`, for which the % of control in assay [7] (at 1 µM) was 96%; in assay [7] (at 5 µM) it was 113%.

`Cc1ccc(-c2ccc3c(ccc4sc5c(c43)NC[C@@H](C)NC5=O)n2)cn1`: in assay [8], the % of inhibition worked out at 11%.
